Experimental data as given in patent US9657014B2, “Substituted 1,6-naphthyridines” (Hoffmann-La Roche Inc., priority 2012, dated 2017).

System: human embryonic stem cell derived neural stem cells (NSCs)
Assay: Neural stem cell proliferation assay (neurogenesis assay)
Format: cell-based
Settings: Homo sapiens, Neural stem cell, 96 h; Table 1, novel compounds; concentration at which 150% activity of control (100%) is reached; ATP levels (CellTiterGlo) after 4 days incubation
Procedure, shortened: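 NSCs derived from human ES cells by dual SMAD inhibition, seeded on polyornithin/laminin, dosed 4 h later (11 points, 8 μM to 8 nM). After 4 days at 37° C, ATP luminescence read; response = compound/medium control ×100, EC150 = concentration giving 150% of control.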

In order of falling EC (150% of control):
1. CC(NC(=O)c1ccc2cncc(-c3cccc(Cl)n3)c2n1)C(C)(C)O (centres unmarked) [Example 175, 8-(6-Chloropyridin-2-yl)-N-(3-hydroxy-3-methylbutan-2-yl)-1,6-naphthyridine-2-carboxamide]  1.03 µM
2. CC(NC(=O)c1ccc2cncc(-c3cc(F)c(F)c(F)c3)c2n1)C(C)(C)O (centres unmarked) [Example 173, N-(3-Hydroxy-3-methylbutan-2-yl)-8-(3,4,5-trifluorophenyl)-1,6-naphthyridine-2-carboxamide]  0.9 µM
3. Cc1cc2cncc(-c3ccc(C(F)(F)F)cc3)c2nc1C(N)=O [Example 157, 3-Methyl-8-[4-(trifluoromethyl)phenyl]-1,6-naphthyridine-2-carboxamide]  0.88 µM
4. CC(NC(=O)c1ccc2cncc(-c3cccc(OCC(F)(F)F)c3)c2n1)C(C)(C)O (centres unmarked) [Example 164, N-(3-Hydroxy-3-methylbutan-2-yl)-8-(3-(2,2,2-trifluoroethoxyl)phenyl)-1,6-naphthyridine-2-carboxamide]  0.76 µM
5. Cc1cc2cncc(-c3ccc(C#N)cc3)c2nc1C(N)=O [Example 155, 8-(4-Cyanophenyl)-3-methyl-1,6-naphthyridine-2-carboxamide]  0.7 µM
6. CC(NC(=O)c1ccc2cncc(-c3ccc(Cl)nc3)c2n1)C(C)(C)O (centres unmarked) [Example 174, 8-(6-Chloropyridin-3-yl)-N-(3-hydroxy-3-methylbutan-2-yl)-1,6-naphthyridine-2-carboxamide]  0.61 µM
7. CC(NC(=O)c1ccc2cncc(-c3ccc(Cl)cc3Cl)c2n1)C(C)(C)O (centres unmarked) [Example 172, 8-(2,4-Dichlorophenyl)-N-(3-hydroxy-3-methylbutan-2-yl)-1,6-naphthyridine-2-carboxamide]  0.5 µM
8. NCc1ccc(-c2cncc3ccc(C(N)=O)nc23)cc1 [Example 156, 8-(4-(Aminomethyl)phenyl)-1,6-naphthyridine-2-carboxamide]  0.31 µM
9. Cc1ccccc1-c1cncc2ccc(C(=O)NC(C)C(C)(C)O)nc12 (centres unmarked) [Example 176, N-(3-Hydroxy-3-methylbutan-2-yl)-8-o-tolyl-1,6-naphthyridine-2-carboxamide]  0.28 µM
10. CC(NC(=O)c1ccc2cncc(-c3ccc(Cl)c(F)c3)c2n1)C(C)(C)O (centres unmarked) [Example 170, 8-(4-Chloro-3-fluorophenyl)-N-(3-hydroxy-3-methylbutan-2-yl)-1,6-naphthyridine-2-carboxamide]  0.25 µM
11. NC(=O)c1ccc2cncc(-c3ccc(Cl)nc3)c2n1 [Example 159, 8-(6-Chloropyridin-3-yl)-1,6-naphthyridine-2-carboxamide]  0.18 µM
12. NC(=O)c1ccc2cncc(-c3ccccc3Cl)c2n1 [Example 168, 8-(2-Chlorophenyl)-1,6-naphthyridine-2-carboxamide]  0.15 µM
13. CC(NC(=O)c1ccc2cncc(-c3ccccc3Cl)c2n1)C(C)(C)O (centres unmarked) [Example 171, 8-(2-Chlorophenyl)-N-(3-hydroxy-3-methylbutan-2-yl)-1,6-naphthyridine-2-carboxamide]  0.12 µM
14. NC(=O)c1ccc2cncc(-c3ccc(Cl)cc3Cl)c2n1 [Example 160, 8-(2,4-Dichlorophenyl)-1,6-naphthyridine-2-carboxamide]  0.1 µM
15. O=C(NCCO)c1ccc2cncc(-c3ccc(Cl)cc3)c2n1 [Example 158, 8-(4-Chlorophenyl)-N-(2-hydroxyethyl)-1,6-naphthyridine-2-carboxamide]  0.09 µM
16. NC(=O)c1ccc2cncc(-c3cccc(Cl)c3)c2n1 [Example 167, 8-(3-Chlorophenyl)-1,6-naphthyridine-2-carboxamide]  0.09 µM
17. CC(NC(=O)c1ccc2cncc(-c3ccc(OCC(F)(F)F)cc3)c2n1)C(C)(C)O (centres unmarked) [Example 163, N-(3-Hydroxy-3-methylbutan-2-yl)-8-(4-(2,2,2-trifluoroethoxyl)phenyl)-1,6-naphthyridine-2-carboxamide]  0.07 µM
18. CC(NC(=O)c1ccc2cncc(-c3ccc(C(F)(F)F)cc3)c2n1)C(C)(C)O (centres unmarked) [Example 161, N-(3-Hydroxy-3-methylbutan-2-yl)-8-(4-(trifluoromethyl)phenyl)-1,6-naphthyridine-2-carboxamide]  0.06 µM
19. CC(NC(=O)c1ccc2cncc(-c3ccc(Cl)cc3)c2n1)C(C)(C)O (centres unmarked) [Example 162, 8-(4-Chlorophenyl)-N-(3-hydroxy-3-methylbutan-2-yl)-1,6-naphthyridine-2-carboxamide]  0.06 µM
20. NC(=O)c1ccc2cncc(-c3cccc(OCC(F)(F)F)c3)c2n1 [Example 166, 8-(3-(2,2,2-Trifluoroethoxyl)phenyl)-1,6-naphthyridine-2-carboxamide]  0.06 µM
21. NC(=O)c1ccc2cncc(-c3ccc(Cl)c(F)c3)c2n1 [Example 169, 8-(4-Chloro-3-fluorophenyl)-1,6-naphthyridine-2-carboxamide]  0.03 µM
22. NC(=O)c1ccc2cncc(-c3ccc(OCC(F)(F)F)cc3)c2n1 [Example 165, 8-(4-(2,2,2-Trifluoroethoxyl)phenyl)-1,6-naphthyridine-2-carboxamide]  0.01 µM

Same assay, conditions: Homo sapiens, Neural stem cell, 96 h; Table 2, known compounds; concentration at which 150% activity of control (100%) is reached; ATP levels (CellTiterGlo) after 4 days incubation

In order of rising EC (150% of control):
1. COc1ccc(-c2cncc3ccc(C(=O)NCc4ccncc4)nc23)cc1 [Example 181, 8-(4-Methoxy-phenyl)-[1,6]naphthyridine-2-carboxylic acid (pyridin-4-ylmethyl)-amide]  0.04 µM
2. COc1ccc(-c2cncc3ccc(C(=O)NCc4ccccc4)nc23)cc1 [Example 184, 8-(4-Methoxy-phenyl)-[1,6]naphthyridine-2-carboxylic acid benzylamide]  0.16 µM
3. O=C(NCc1ccccc1)c1ccc2cncc(-c3ccccc3)c2n1 [Example 191, 8-Phenyl-[1,6]naphthyridine-2-carboxylic acid benzylamide]  0.44 µM
4. Cc1cnc(CNC(=O)c2ccc3cncc(-c4ccccc4)c3n2)cn1 [Example 190, 8-Phenyl-[1,6]naphthyridine-2-carboxylic acid (5-methyl-pyrazin-2-ylmethyl)-amide]  0.5 µM
5. COc1ccc(-c2cncc3ccc(C(=O)NCc4ccc(C(F)(F)F)nc4)nc23)cc1 [Example 186, 8-(4-Methoxy-phenyl)-[1,6]naphthyridine-2-carboxylic acid (6-trifluoromethyl-pyridin-3-ylmethyl)-amide]  0.67 µM
6. COc1ccc(-c2cncc3ccc(C(=O)NCCCn4ccnc4)nc23)cc1 [Example 179, 8-(4-Methoxy-phenyl)-[1,6]naphthyridine-2-carboxylic acid (3-imidazol-1-yl-propyl)-amide]  0.7 µM
7. COc1ccc(-c2cncc3ccc(C(=O)N4CCN(Cc5nc(OC)cc(OC)n5)CC4)nc23)cc1 [Example 187, [4-(4,6-Dimethoxy-pyrimidin-2-ylmethyl)-piperazin-1-yl]-[8-(4-methoxy-phenyl)-[1,6]naphthyridin-2-yl]-methanone]  0.71 µM
8. COc1ccccc1CNC(=O)c1ccc2cncc(-c3ccccc3)c2n1 [Example 194, 8-Phenyl-[1,6]naphthyridine-2-carboxylic acid 2-methoxy-benzylamide]  0.73 µM
9. COc1ccc(-c2cncc3ccc(C(=O)N4CCN(c5ccccn5)CC4)nc23)cc1 [Example 185, [8-(4-Methoxy-phenyl)-[1,6]naphthyridin-2-yl]-(4-pyridin-2-yl-piperazin-1-yl)-methanone]  0.8 µM
10. O=C(NCCCn1ccnc1)c1ccc2cncc(-c3ccccc3)c2n1 [Example 189, 8-Phenyl-[1,6]naphthyridine-2-carboxylic acid (3-imidazol-1-yl-propyl)-amide]  1.2 µM
11. COc1ccc(-c2cncc3ccc(C(=O)N4CCCCC4)nc23)cc1 [Example 183, [8-(4-Methoxy-phenyl)-[1,6]naphthyridin-2-yl]-piperidin-1-yl-methanone]  1.25 µM
12. COc1ccc(-c2cncc3ccc(C(=O)NCc4cnc(C)cn4)nc23)cc1 [Example 180, 8-(4-Methoxy-phenyl)-[1,6]naphthyridine-2-carboxylic acid (5-methyl-pyrazin-2-ylmethyl)-amide]  1.26 µM
13. O=C(c1ccc2cncc(-c3ccccc3)c2n1)N1CCN(c2ccccn2)CC1 [Example 192, (8-Phenyl-[1,6]naphthyridin-2-yl)-(4-pyridin-2-yl-piperazin-1-yl)-methanone]  1.4 µM
14. O=C(NC1CCN(Cc2ccccc2)CC1)c1ccc2cncc(-c3ccccc3)c2n1 [Example 193, 8-Phenyl-[1,6]naphthyridine-2-carboxylic acid (1-benzyl-piperidin-4-yl)-amide]  1.9 µM
15. O=C(NCCCn1ccnc1)c1ccc2cncc(-c3ccsc3)c2n1 [Example 197, 8-Thiophen-3-yl-[1,6]naphthyridine-2-carboxylic acid (3-imidazol-1-yl-propyl)-amide]  1.98 µM
16. O=C(NCc1ccc(C(F)(F)F)nc1)c1ccc2cncc(-c3ccccc3)c2n1 [Example 196, 8-Phenyl-[1,6]naphthyridine-2-carboxylic acid (6-trifluoromethyl-pyridin-3-ylmethyl)-amide]  3.7 µM
17. CS(=O)(=O)c1ccc(CNC(=O)c2ccc3cncc(-c4ccccc4)c3n2)cc1 [Example 195, 8-Phenyl-[1,6]naphthyridine-2-carboxylic acid 4-methanesulfonyl-benzylamide]  4 µM
18. COc1ccc(-c2cncc3ccc(C(=O)N4CCOCC4)nc23)cc1 [Example 182, [8-(4-Methoxy-phenyl)-[1,6]naphthyridin-2-yl]-morpholin-4-yl-methanone]  5.4 µM
19. O=C(NCCCN1CCOCC1)c1ccc2cncc(-c3ccccc3)c2n1 [Example 188, 8-Phenyl-[1,6]naphthyridine-2-carboxylic acid (3-morpholin-4-yl-propyl)-amide]  6.8 µM
